Test results published in patent publication US20100130604A1, “USE OF ROSMARINIC ACID IN MANUFACTURE OF MEDICAMENTS FOR TREATING OR PREVENTING HEPATIC AND RENAL DISEASES” (SHANGDONG LUYE NATURAL DRUG RESEARCH AND DEVELOPMENT CO., …, priority 2006, published 2010).

Test system: rats with diabetic nephropathy
Assay: Diabetic nephropathy in rats (left nephrectomy + streptozocin)
Type: in vivo, Sprague Dawley rats
Protocol: After 1 week-long acclimation period, animals were anaesthetised with 10% chloral hydrate (0.35 mL/100 g, i.p.) and nephrectomy was exercised to the left kidney. One week later, a single dose of 1% of streptozocin solution was i.v. injected to all animals at 60 mg/kg. After 72h, blood was collected from eyepit to test blood glucose level with the above-mentioned kit. The model was considered successful when blood glucose level >16.7 mmol/L. When the model is established, 130 rats were randomly divided into 13 groups, with 10 animals in each group, namely, a normal control group, a model group, benzanapril p.o. Group at 10 mg/kg, RA i.v. groups at 2.5 mg/kg, 5 mg/kg, 25 mg/kg, 75 mg/kg, and 150 mg/kg of RA, and RA p.o. groups at 5 mg/kg, 10 mg/kg, 50 mg/kg, 150 mg/kg, and 300 mg/kg of RA. The drugs were administered once every day. Blood was collected from eyepit at week 8 and week 16 to determine serum levels of creatinine and urea nitrogen. Urinary protein excretion within 24 hours was also studied. The animals were sacrificed 24 hours after the last dose and kidney removed for histopathological examination.

SMILES: O=C(/C=C/c1ccc(O)c(O)c1)O[C@H](Cc1ccc(O)c(O)c1)C(=O)O [RA, R(+)2-{[3-(3,4-dihydroxylphenyl-(oxo-2-propenyl)oxy]3,4-dihydroxylphenylpropionic acid]}]
- 24 h urinary protein excretion (8 weeks, i.v. 2.5 mg/kg): 20.29 ± 2.21 mg/24 h
- Blood glucose (8 weeks, i.v. 2.5 mg/kg): 21.23 ± 5.66 mmol/L
- Serum urea nitrogen (8 weeks, i.v. 2.5 mg/kg): 18.01 ± 1.62 mg/dL
- 24 h urinary protein excretion (8 weeks, i.v. 5 mg/kg): 19.19 ± 2.15 mg/24 h
- Blood glucose (8 weeks, i.v. 5 mg/kg): 21.02 ± 6.14 mmol/L
- Serum urea nitrogen (8 weeks, i.v. 5 mg/kg): 17.91 ± 1.80 mg/dL
- 24 h urinary protein excretion (8 weeks, i.v. 25 mg/kg): 17.59 ± 2.12 mg/24 h
- Blood glucose (8 weeks, i.v. 25 mg/kg): 21.15 ± 5.74 mmol/L
- Serum urea nitrogen (8 weeks, i.v. 25 mg/kg): 15.42 ± 3.36 mg/dL
- 24 h urinary protein excretion (8 weeks, i.v. 75 mg/kg): 16.78 ± 2.52 mg/24 h
- Blood glucose (8 weeks, i.v. 75 mg/kg): 21.03 ± 4.74 mmol/L
- Serum urea nitrogen (8 weeks, i.v. 75 mg/kg): 14.76 ± 2.19 mg/dL
- 24 h urinary protein excretion (8 weeks, i.v. 150 mg/kg): 16.39 ± 2.25 mg/24 h
- Blood glucose (8 weeks, i.v. 150 mg/kg): 21.23 ± 5.54 mmol/L
- Serum urea nitrogen (8 weeks, i.v. 150 mg/kg): 13.87 ± 1.75 mg/dL
- 24 h urinary protein excretion (8 weeks, p.o. 5 mg/kg): 20.59 ± 2.34 mg/24 h
- Blood glucose (8 weeks, p.o. 5 mg/kg): 21.23 ± 6.36 mmol/L
- Serum urea nitrogen (8 weeks, p.o. 5 mg/kg): 19.37 ± 3.85 mg/dL
- 24 h urinary protein excretion (8 weeks, p.o. 10 mg/kg): 19.11 ± 2.19 mg/24 h
- Blood glucose (8 weeks, p.o. 10 mg/kg): 20.87 ± 6.55 mmol/L
- Serum urea nitrogen (8 weeks, p.o. 10 mg/kg): 17.57 ± 2.70 mg/dL
- 24 h urinary protein excretion (8 weeks, p.o. 50 mg/kg): 17.89 ± 2.64 mg/24 h
- Blood glucose (8 weeks, p.o. 50 mg/kg): 21.07 ± 5.46 mmol/L
- Serum urea nitrogen (8 weeks, p.o. 50 mg/kg): 15.96 ± 1.95 mg/dL
- 24 h urinary protein excretion (8 weeks, p.o. 150 mg/kg): 17.18 ± 2.56 mg/24 h
- Blood glucose (8 weeks, p.o. 150 mg/kg): 21.32 ± 6.44 mmol/L
- Serum urea nitrogen (8 weeks, p.o. 150 mg/kg): 14.76 ± 2.65 mg/dL
- 24 h urinary protein excretion (8 weeks, p.o. 300 mg/kg): 16.89 ± 2.75 mg/24 h
- Blood glucose (8 weeks, p.o. 300 mg/kg): 20.97 ± 5.54 mmol/L
- Serum urea nitrogen (8 weeks, p.o. 300 mg/kg): 14.42 ± 2.90 mg/dL
- 24 h urinary protein excretion (16 weeks, i.v. 2.5 mg/kg): 60.96 ± 6.85 mg/24 h
- Blood glucose (16 weeks, i.v. 2.5 mg/kg): 22.02 ± 5.34 mmol/L
- Serum urea nitrogen (16 weeks, i.v. 2.5 mg/kg): 33.91 ± 3.60 mg/dL
- 24 h urinary protein excretion (16 weeks, i.v. 5 mg/kg): 57.28 ± 8.46 mg/24 h
- Blood glucose (16 weeks, i.v. 5 mg/kg): 22.15 ± 4.24 mmol/L
- Serum urea nitrogen (16 weeks, i.v. 5 mg/kg): 30.42 ± 7.36 mg/dL
- 24 h urinary protein excretion (16 weeks, i.v. 25 mg/kg): 55.34 ± 7.67 mg/24 h
- Blood glucose (16 weeks, i.v. 25 mg/kg): 22.03 ± 4.59 mmol/L
- Serum urea nitrogen (16 weeks, i.v. 25 mg/kg): 26.76 ± 4.19 mg/dL
- 24 h urinary protein excretion (16 weeks, i.v. 75 mg/kg): 54.78 ± 7.96 mg/24 h
- Blood glucose (16 weeks, i.v. 75 mg/kg): 22.35 ± 7.28 mmol/L
- Serum urea nitrogen (16 weeks, i.v. 75 mg/kg): 23.07 ± 3.95 mg/dL
- 24 h urinary protein excretion (16 weeks, i.v. 150 mg/kg): 54.28 ± 7.46 mg/24 h
- Blood glucose (16 weeks, i.v. 150 mg/kg): 22.23 ± 6.24 mmol/L
- Serum urea nitrogen (16 weeks, i.v. 150 mg/kg): 22.57 ± 3.45 mg/dL
- 24 h urinary protein excretion (16 weeks, p.o. 5 mg/kg): 65.55 ± 8.71 mg/24 h
- Blood glucose (16 weeks, p.o. 5 mg/kg): 22.23 ± 5.66 mmol/L
- Serum urea nitrogen (16 weeks, p.o. 5 mg/kg): 39.37 ± 3.85 mg/dL
- 24 h urinary protein excretion (16 weeks, p.o. 10 mg/kg): 61.33 ± 6.65 mg/24 h
- Blood glucose (16 weeks, p.o. 10 mg/kg): 21.87 ± 5.55 mmol/L
- Serum urea nitrogen (16 weeks, p.o. 10 mg/kg): 38.37 ± 3.85 mg/dL
- 24 h urinary protein excretion (16 weeks, p.o. 50 mg/kg): 57.28 ± 8.46 mg/24 h
- Blood glucose (16 weeks, p.o. 50 mg/kg): 22.07 ± 4.46 mmol/L
- Serum urea nitrogen (16 weeks, p.o. 50 mg/kg): 34.57 ± 5.60 mg/dL
- 24 h urinary protein excretion (16 weeks, p.o. 150 mg/kg): 56.28 ± 8.76 mg/24 h
- Blood glucose (16 weeks, p.o. 150 mg/kg): 21.32 ± 6.34 mmol/L
- Serum urea nitrogen (16 weeks, p.o. 150 mg/kg): 28.96 ± 3.95 mg/dL
- 24 h urinary protein excretion (16 weeks, p.o. 300 mg/kg): 55.78 ± 9.46 mg/24 h
- Blood glucose (16 weeks, p.o. 300 mg/kg): 21.97 ± 5.34 mmol/L
- Serum urea nitrogen (16 weeks, p.o. 300 mg/kg): 27.76 ± 5.30 mg/dL
- kidney pathological examination (RA treated groups vs model group): fewer lesions than the model group in a dose-dependent manner
- creatinine (serum, 8 weeks, i.v. 2.5 mg/kg): 0.91 ± 0.12 mg/dL
